This experiment deals with recombinant soluble dimeric mouse H-2D^b:Ig (DimerX) protein (Mus musculus, UniProt P01899). The experiment can be described thus: biochemical. Type of experiment: binding.

Each structure is given as a SMILES string.

The text below walks through data of article PMC8275407 (BioMed Research International, 2021).

Broadly, the Kd is a measure of binding affinity in units of concentration.

recombinant soluble dimeric mouse H-2D^b:Ig (DimerX) protein, sequence (P01899 25-298 limits assumed): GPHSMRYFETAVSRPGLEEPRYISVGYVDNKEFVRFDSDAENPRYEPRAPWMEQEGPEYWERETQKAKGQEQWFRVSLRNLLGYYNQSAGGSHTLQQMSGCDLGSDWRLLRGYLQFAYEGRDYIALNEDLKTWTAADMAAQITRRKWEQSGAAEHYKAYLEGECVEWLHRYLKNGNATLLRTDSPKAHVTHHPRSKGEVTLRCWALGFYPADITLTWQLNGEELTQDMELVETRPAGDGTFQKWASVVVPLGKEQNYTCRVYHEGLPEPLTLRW

For the molecule `CC[C@H](C)[C@H](NC(=O)CNC(=O)[C@@H](NC(=O)[C@H](Cc1ccccc1)NC(=O)[C@H](CCCCN)NC(=O)[C@H](CO)NC(=O)[C@H](CC(N)=O)NC(=O)[C@H](C)NC(=O)[C@H](CCCCN)NC(=O)[C@@H](NC(=O)[C@H](Cc1ccc(O)cc1)NC(=O)[C@@H](N)CCC(N)=O)[C@@H](C)CC)[C@@H](C)CC)C(=O)N[C@H](C(=O)N[C@@H](CCC(=O)O)C(=O)O)[C@@H](C)O` [TT830-843], the Kd came out at 344 ± 60 nM. In addition, under “pH 7.2, read-out: association rate constant ka”, the kon was found to be 900000 M⁻¹ s⁻¹. The koff (pH 7.2, read-out: dissociation rate constant kd) is 0.31 ± 0.02 s⁻¹.
